One assay relates to SK-OV-3 cells. The assay is described as follows: sulforhodamine B (SRB) antiproliferative assay. Format: cell-based, human. The conditions noted are these: 48 h; mean ± SEM; read-out: GI50, concentration that causes a 50% decrease in proliferation, SK-OV-3. The source says:
(§1) HCC1806 (CRL-2335) and HCC1937 (CRL-2336) human triple-negative breast cancer cells, HeLa (CCL-2) cervical cancer cells and SK-OV-3 (HTB-77) ovarian cancer cells were obtained from ATCC (Manassas, Va.) and validated by STR profiling (Genetica). SK-OV-3 cells stably overexpressing Pgp by adenoviral-mediated expression of MDR1 were obtained from Dr. Susan Kane and subcloned by limiting dilution to isolate the single-cell clones utilized in these studies as SK-OV-3-MDR-1-6/6 (Risinger, A. L. et al. (2008) Cancer Res. 68, 8881-8888). A single-cell clone from transfection of HeLa cells with βIII-tubulin, designated wild type βIII, was constructed and obtained from Dr. Richard Luduena (Risinger, A. L. et al. (2008) Cancer Res. 68, 8881-8888). HCC1806 and HCC1937 cells were cultured in RPMI 1640 media (Corning) with 10% FBS (Cellgro) and 50 μg/mL gentamicin (Gibco). HeLa, […] expressing HeLa, SK-OV-3 and SK-OV-3/MDR-1-6/6 cells were grown in BME media with Earle's salts (Gibco) with 10% FBS, 1× final 1% GlutaMax™ Supplement (Gibco), and […] gentamicin. The use of HeLa cells allows for the direct comparison of the in vitro potency as compared to other compounds of this class, which have been predominantly reported in this line and compound potencies are consistent among three additional cancer cell lines. HeLa cells were also used for ectopic expression of tubulin mutants due to the high degree of transfectability of this cell line. Cells were tested for mycoplasma contamination using the Mycoplasma Detection Kit-Quick Test (Cat: B39032, Lot: JW004).
(§2) The sulforhodamine B (SRB) assay was utilized to examine the antiproliferative and cytotoxic effects of the compounds (Skehan, P. et al. (1990) J. Natl. Cancer Inst. 82, 1107-1112; Vichai and Kirtikara (2006) Nat. Protoc. 1, 1112-1116). Approximately 2,000 cells per well (for SK-OV-3, HeLa and βIII-tubulin expressing HeLa) or 4,000 cells per well (for HCC1806 and HCC1937) were seeded in 96-well plates. For each biological replicate, cells were treated in triplicate with each concentration of compound or vehicle control for 48 h in a final volume of 200 μL. The plates were fixed with 10% trichloroacetic acid for protein precipitation of adherent cells and then washed with distilled water. 100 μL of SRB dye, which binds protein stoichiometrically, was added and then unbound dye removed with 1% acetic acid followed by the addition of 200 μL 10 mM Tris to solubilize the dye, which was quantified by absorbance at 560 nm. The percent growth of treated cells relative to the density at the time of drug addiction was calculated as compared to vehicle treated cells.
Background: In SRB staining, fixed cells bind dye roughly in proportion to their protein.

In the next assay the test system is HeLa cells. The assay is described as follows: sulforhodamine B (SRB) antiproliferative assay. Format: cell-based, human. The conditions noted are these: 48 h; mean ± SEM; read-out: GI50, concentration that causes a 50% decrease in proliferation, HeLa.
Text: as §1, §2

Assay [1] deals with T1, purified porcine brain tubulin (Sus scrofa, UniProt P02554).
T1 construct: purified porcine brain tubulin (Cytoskeleton); purchased Cytoskeleton; host or cells: porcine brain
T1 sequence (P02554 whole entry): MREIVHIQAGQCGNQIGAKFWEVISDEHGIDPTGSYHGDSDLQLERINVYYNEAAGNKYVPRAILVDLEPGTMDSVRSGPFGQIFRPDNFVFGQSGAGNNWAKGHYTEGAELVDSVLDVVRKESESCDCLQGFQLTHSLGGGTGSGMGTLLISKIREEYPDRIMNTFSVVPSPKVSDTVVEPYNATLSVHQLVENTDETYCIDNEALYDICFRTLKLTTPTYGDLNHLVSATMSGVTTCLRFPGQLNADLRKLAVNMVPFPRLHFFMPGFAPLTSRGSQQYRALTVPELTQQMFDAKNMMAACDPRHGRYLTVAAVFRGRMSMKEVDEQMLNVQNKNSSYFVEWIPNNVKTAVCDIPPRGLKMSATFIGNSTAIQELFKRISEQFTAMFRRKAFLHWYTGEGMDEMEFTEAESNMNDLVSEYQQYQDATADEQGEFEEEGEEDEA
T1 sequence (P02550 whole entry partner): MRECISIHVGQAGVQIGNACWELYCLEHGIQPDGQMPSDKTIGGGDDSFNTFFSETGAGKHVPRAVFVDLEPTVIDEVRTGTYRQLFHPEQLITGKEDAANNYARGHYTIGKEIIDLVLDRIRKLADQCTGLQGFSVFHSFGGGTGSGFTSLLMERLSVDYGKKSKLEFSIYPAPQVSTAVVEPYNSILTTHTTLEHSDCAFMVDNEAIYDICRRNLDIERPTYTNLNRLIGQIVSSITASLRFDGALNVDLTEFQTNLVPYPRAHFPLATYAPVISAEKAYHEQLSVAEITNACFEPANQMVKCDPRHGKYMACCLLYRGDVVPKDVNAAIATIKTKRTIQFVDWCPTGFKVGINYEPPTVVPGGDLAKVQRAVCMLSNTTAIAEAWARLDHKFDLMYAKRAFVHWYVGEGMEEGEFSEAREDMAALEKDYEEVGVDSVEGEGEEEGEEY
Put plainly: biochemical tubulin polymerization assay. As to conditions: tubulin 20 μM. The method, then:
Exemplary results of the […] tubulin polymerization assay are illustrated in FIG. 3, FIG. 4B, and FIG. 5B and were obtained as described in Risinger et al., Cancer Research, 2013.
Biochemical tubulin polymerization assays were performed using purified porcine brain tubulin (Cytoskeleton). In individual wells of a 96-well plate, 1 μL of each 100× drug stock was incubated with 20 μM porcine brain tubulin in GPEM glycerol buffer (1 mM GTP, 10% glycerol, 80 mM PIPES pH 6.9, 2 mM MgCl2 and 0.5 mM EGTA) in a final volume of 100 μL. Pure porcine tubulin was prepared on ice at 4° C. to inhibit tubulin polymerization until the assay was initiated, while the plate reader was pre-warmed to 37° C. Tubulin polymerization was measured every minute for an hour by light scattering at 340 nm in a Spectramax plate reader using SoftMax software (Molecular Devices). Light scattering was normalized to the initial measurement for each well. For the probe-tubulin binding assay, samples were prepared on ice in tubes instead of a 96 well plate, and moved to a 37° C. heat block to initiate binding and polymerization. The time zero (0′) sample consisted of tubulin polymerization buffer prior to addition of taccalonolide probe. […]

The structures appear in SMILES notation.

In the case of `CC(=O)O[C@H]1[C@H]2[C@H]([C@@H]3[C@@H](O)[C@@H]4[C@H]([C@H](C)[C@@H]5O[C@@]56OC(=O)[C@@](C)(O)[C@]46C)[C@@]3(C)[C@H]1OC(C)=O)[C@@H](O)C(=O)[C@H]1C[C@@H]3O[C@@H]3[C@H](OC(C)=O)[C@]21C` [compound 2, taccalonolide AJ, reference compound], the GI50 in the assay with SK-OV-3 cells stood at 6.2 nM; in the assay on HeLa cells it was 8.5 nM. Moreover, the “concentration range promoting polymerization of purified tubulin” value in assay [1] was 5 to 20 µM.
